# Results published in patent US4680382A, “Analogues of actinomycin D” (priority 1986, dated 1987).
# Assays:
# [1] = test system: P388 lymphocytic leukemia; experiment: In vivo antitumor activity against P388 leukemia; parameters: species or system BDF1 mice
# Method: The analogues were tested for their antitumor activities in P388 lymphocytic leukemia in male BDF1 mice. The tumor was implanted intraperitoneally (ip) with 10^6 cells. The drugs were also administered ip once daily on days 1, 5 and 9, beginning 1 day after tumor transplantation. Analogues were tested over a range of doses, but only the optimal nontoxic doses are listed.
# ^a 10^6 P388 cells implanted ip on day 0 into groups of eight
# BDF1 male mice. Drugs administered ip. MST (range), median survival
# time in days (range of individual animal deaths); % ILS, percent increase
# in life span, calculated 100(T/C - 1), where T and C are median survival
# times of treated and control animals; surv, number of surviving mice/tota
# P388 cells [2] = experiment: Inhibition of RNA synthesis (2-[14C]uridine incorporation) in P388 cells; assay type: cell-based, murine
# Method: (§1) Experiments for inhibition of nucleic acid synthesis in tumor cells in vitro were carried out with P388 tumor cells, details of which were reported by Sengupta et al, J. Med. Chem., 18, 1175 (1975). […] AMD-OZLs inhibit either process with equal activity and with the potency of its metabolite 7-hydroxy-AMD.
# ^b IC50 (RNA) = concentration of inhibitor in μM required to
# cause 50% reduction (in 1 hr) in 2[^14 C]uridine incorporation into
# acid precipitable material with use of P388 cells.
# P388/S = experiment: In vivo activity against P388/S (adriamycin sensitive) leukemia, Table VII; parameters: species or system BDF1 mice
# Method: (§2) ^a Male BDF1 mice inoculated ip: 10^6 cells inoculum, day 0.
# (§3) Drugs administered in 10% dimethyl sulfoxidesaline on days 1, 5 and 9. %
# (§4) ILS = percent increase in life span. Fractions in parentheses = tumorfree
# (§5) survivors/total on day 60. P388/S (adriamycin sensitive) and P388/ADR
# (§6) (adriamycin resistant) tumors were evaluated in the same experiment with […]
# P388 Leukemia = experiment: Minimum effective dose and therapeutic index vs. P388 leukemia; assay type: in vivo; conditions: dose giving 45% increase in life span in P388 tumor bearing mice; ip days 1, 5 and 9
# Method: (§7) These analogues were also tested in tumor-free BDF1 male mice for determination of their MTD values (Table VIII). The animals (18-22 g) were given a broad range of doses of drugs in 5% dimethyl sulfoxide-saline on days 1, 5 and 9. Drugs were administered ip and the maximum tolerated doses of agents which caused death in only 10% of the tested animals in 21 days (i.e., LD10) were recorded as MTD. […] However, the MED values of 7-hydroxy-AMD and its precursor AMD-OZL 10a are high and are seven to tenfold of the MED values of 4a and 8a. On the basis of these MED values, the therapeutic indices of 8a and 4a are 70 and 96. The therapeutic index of 2a is 13, of 10a 10, and of AMD only 4.
# ^a Drugs administered ip once on days 1, 5 and 9 starting 1 day after
# tumor implantation. Determinations were made from analysis of plotted
# ^b MED (minimum effective dose) is the dose (milligram/kilogram)
# providing an increase in life span of 45% over control in P388 tumor
# calf-thymus DNA = experiment: Equilibrium binding to calf-thymus DNA, Scatchard plots of binding isotherms (spectrophotometric); conditions: Scatchard plot
# Method: (§8) The "reverse" analogues bind to calf-thymus DNA, but the spectrophotometrically determined binding (Kapp and Bapp, equilibrium binding values) constants are found to be lower than those of AMD. The binding is also measured by thermal denaturation of DNA.
# (§9) The equilibrium binding constants (Kapp and Bapp) of the "reverse" methyl 7a and the "reverse" phenyl 8a were determined from the Scatchard plots of binding isotherms; the Scatchard plots are produced according to the previously described methods using calf-thymus DNA [Sengupta et al, Biochem. Biophys. Acta 521, 89 (1978)]. The Kapp values are 2.5×10^6 and 2.3×10^6 M^-1, respectively; corresponding Bapp values are 0.038 and 0.036. […] But, these "reverse" analogues associate with DNA less strongly; their frequency of binding is also lower compared to that of AMD. However, the "reverse" analogues fail to cause any measurable change in the ratio of the intrinsic viscosity (γ) of DNA with the increasing ratios of [ligand]/DNA base pair (r), even when low molecular weight DNAs (0.5×10^5 to 1.0×10^5) were employed.
# [3] = test system: CCRF-CEM human lymphoblastic leukemic cells; experiment: In vitro cytotoxicity against CCRF-CEM cells; assay type: cell-based; conditions: 48 hr
# Method: ^a Human lymphoblastic leukemic cells.
# The analogues were tested for their cytotoxicity against tumor cells (time, 48 hr). […] This may be associated with the initial microsomal transformation of the "reverse" analogues to "symmetrical" analogue and/or other alternate bioactive forms (e.g., free-radicals, O2^-), followed by deactivation via formation of conjugates and facile elimination of these from the host. The "reverse" analogues show reduced toxicity in vivo and also the tritiated "reverse" 7a is metabolized in vitro.
# P388 cells [4] = experiment: Inhibition of DNA synthesis (methyl-[3H]thymidine incorporation) in P388 cells; assay type: cell-based, murine; conditions: 50% reduction in 1 hr of methyl-[3H]thymidine incorporation, read-out: IC50 DNA synth
# Method: as §1
# ^c IC50 (DNA) = concentration of inhibitor in μM required to
# cause 50% reduction (in 1 hr) in methyl[^3 H]thymidine incorporation
# into acid precipitable material with use of P388 cells.
# P388/ADR = experiment: In vivo activity against P388/adriamycin-resistant leukemia; parameters: species or system BDF1 mice
# Method: as §2, §3, §4, §5, §6
# B16 melanoma = experiment: In vivo antitumor activity against B16 melanoma; parameters: species or system BDF1 mice
# Method: AMD-OZL analogues 9a and 10a were about as active as AMD and 7-hydroxy-AMD. The potencies of these analogues are reduced in comparison to that of AMD; their optimal doses were higher than that of AMD.
# ^a 0.2 mL of 1:5 (weight/volume) brei of B16 melanoma implanted
# ip on day 0 in groups of nine BDF1 mice. Drugs administered ip.
# ^b MST (range) median survival time in days (range of individual
# ^c % ILS (surv), percent increase in lifespan (survivors on day
# [5] = Maximum tolerated dose (LD10) in tumor-free BDF1 male mice; assay type: in vivo; conditions: lethal dose for 10% normal BDF1 male mice, 21 days (LD10); ip days 1, 5 and 9
# Method: as §7
# ^c MTD (maximum tolerated dose) is the lethal dose
# (milligram/kilogram) for 10% normal BDF1 male mice (18-22 g); animal
# calculated from a plot of logdose vs. percent mortality.
# DNA = experiment: Thermal denaturation of DNA (ΔTm); assay type: binding
# Method: as §8, §9
# Melting points are determined on a Thomas-Hoover melting point apparatus at a heating rate of 2° C./min. Thin-layer chromatography was performed on silica gel plates (Brinkmann Instrument Inc.). Solvent systems were (A) EtOAc-acetone (4:1), (B) CHCl3 -MeOH (9:1) and (C) Cifferri, the organic phase of the mixture EtOAc-MeOH-H2 O (20:1:20). High-performance liquid chromatography was carried out on a Varian Model 5020 gradient liquid chromatograph equipped with a CD-111L chromatography data system and fitted with a Varian reversed-phase C18 column with the following solvent systems: I, CH3 CN-5 mM NH4 OAc buffer, pH 6.4 (68:32 isocratic), flow rate 1.5 mL/min; II, 65-95% water-methanol gradient for 70 min, 1 mL/min; III, 10-90% H2 O-MeOH gradient for 120 min, 1 mL/min, with UV-visible variable- and fixed-wavelength dual detectors at 254, 440, 470 and 520 nm. IR spectra were obtained on a Perkin-Elmer Model 237 Infra Cord with KBr micropellets or in chloroform solutions. UV-visible spectra were obtained on a Gilford 250 spectrophorometer, which, with the addition of a base-line reference compensator (Analog Multiplexer 5053) and thermoprogrammer, auto four cell programmer and thermoelectric cell holder 2577, were used to obtain thermal denaturation curves. Specific rotation values were determined in chloroform solutions with a Cary 60 spectropolarimeter. NMR spectra were obtained in a JEOL FQ-90 MHz spectrometer equipped with Fourier transform. EPR spectra analyses were recorded in a Varian E-9 EPR spectrometer. All elemental analyses were within ±0.4%.
compound,measurement,setting,value
"Cc1c2oc3c(C)c4oc(-c5ccccc5)nc4c(C(=O)NC4C(=O)NC(C(C)C)C(=O)N5CCCC5C(=O)N(C)CC(=O)N(C)C(C(C)C)C(=O)OC4C)c3nc-2c(C(=O)NC2C(=O)NC(C(C)C)C(=O)N3CCCC3C(=O)N(C)CC(=O)N(C)C(C(C)C)C(=O)OC2C)c(N)c1=O [8a, 7-Amino-9,11-dimethyl-2-phenyl-8H-8-oxooxazolo [4,5-b]phenoxazine 4,6-bis[carbonyl-L-threonyl-D-valyl-L-prolylsarcosyl-L-N-methylvaline(threonine hydroxyl)] lactone]",surv (surviving mice/total mice at 60 days),"[1]; P388, at optimal dose",4/8
same,% ILS,"[1]; P388, at optimal dose, 100(T/C - 1)",382%
same,MST (range),"[1]; P388, at optimal dose, control 11.0 (9-12)",52.0 (49-58) days
same,optimal dose,"[1]; P388, ip, days 1, 5 and 9, optimal nontoxic dose",375.0 μg/kg per inj
same,IC50,"P388 cells [2]; 50% reduction in 1 hr of 2-[14C]uridine incorporation, read-out: IC50 RNA synth",70 nM
same,IC50 DNA/IC50 RNA,P388 cells [2]; ratio,11.43
same,P388/S % ILS,P388/S; at optimal dose,382%
same,P388/S tumor-free survivors/total on day 60,P388/S; at optimal dose,4/8
same,P388/S optimal dose,"P388/S; ip, days 1, 5 and 9",0.35 mg/kg
same,MED (minimum effective dose),P388 Leukemia,0.03 milligram/kilogram
same,Bapp (equilibrium binding value),calf-thymus DNA,0.036
same,Kapp (equilibrium binding constant),calf-thymus DNA,2.3e+06 M⁻¹
same,in vitro (CCRF-CEM) ID50,[3],30 nM
same,IC50,P388 cells [4],800 nM
same,P388/ADR % ILS,P388/ADR; at optimal dose,132%
same,P388/ADR tumor-free survivors/total on day 60,P388/ADR; at optimal dose,1/8
same,P388/ADR optimal dose,"P388/ADR; ip, days 1, 5 and 9",0.6 mg/kg
same,% ILS,B16 melanoma; at optimal dose,103%
same,surv (survivors on day 65/total injected),B16 melanoma; at optimal dose,5/9
same,MST (range),"B16 melanoma; at optimal dose, control 29 (20-48)",59 (53-59) days
same,optimal dose,"B16 melanoma; ip, days 1, 5, 9",300 μg/kg per inj
same,MTD (maximum tolerated dose),[5],1.80 milligram/kilogram
same,ΔTm (DNA melting temperature),DNA,6.7±0.2 °C
